Measurements reported in patent publication US20160296529A1, “AMINOTRIAZOLOPYRIDINE FOR USE IN THE TREATMENT OF INFLAMMATION, AND PHARMACEUTICAL COMPOSITIONS THEREOF” (priority 2012, published 2016).

How the values were obtained:
[1] = Target inhibition: circulating levels in healthy volunteers as multiples of whole blood assay IC50; format: in vivo, human
Protocol: The compound according to Formula II was dosed daily in healthy volunteers at 200 mg QD and 100 mg BID.
The resulting levels of Formula II and Formula I were then measured and plotted (FIG. 5) as multiples of their respective IC50 as determined by the Whole Blood assay described above in Example 3.4.

[2] = Single dose pharmacokinetics in human; format: in vivo; details: for Ratio I/II of exposure (AUC Formula I : AUC Formula II) / AUC: human; for half-life: oral, human plasma, single dose (10-200 mg) of Formula II as capsules, read-out: mean apparent terminal elimination half-life; for AUC: plasma, po, capsules, read-out: exposure (expressed as AUC)
Protocol: Serial blood samples were collected over 72 h to determine plasma concentrations of the compounds according to Formula II and Formula I using a validated liquid chromatography-mass spectrometry/mass spectrometry (LC-MS/MS) method with a limit of quantification of 1.00 ng/mL. PK parameters were assessed using a statistical analysis package (WinNonLin (Pharsight, Sunnyvale, Calif.: CA 94086, USA).
Mean plasma concentration-time profiles of the compound according to Formula II and the compound according to Formula I were measured.
In order to show the comparative exposures of the two compounds, the AUC of the compounds according to Formula I and the compound according to Formula II were calculated. The AUC value represents the total exposure of the compound in the species after dosing. These values were then expressed as a ratio of AUC of the compound according to Formula I: AUC of the compound according to Formula II in FIG. 4. From this ratio it can clearly be seen that there was a significant difference in exposure to a compound according to Formula I after administration of a compound according to Formula II in human compared to the exposure seen in animals for therapeutically equivalent doses. Without wanting to be bound by theory, it was believed that this difference was related to the difference in the apparent terminal half-life in the different species.

[3] = Single dose pharmacokinetics in animals, minipig; format: in vivo, Göttingen minipigs; details: after Formula II 30 mg/kg oral; for AUC: male, Göttingen, plasma, read-out: exposure (expressed as AUC)
Protocol: Pharmacokinetic studies were performed in various animal species dosed with the compound according to Formula II to determine the exposure to the compound according to Formula I as well as its apparent terminal half life (T1/2), when possible.
Sprague-Dawley rats (male, 200-250 g), CD1 mice (male, 25-30 g), Beagle dogs (male, 9-10 kg), Göttingen minipigs (male, 10-15 kg) and New Zealand White rabbits (male, 3-5 kg) were acclimatized for at least 7 days before treatment and were kept on a 12 hr light/dark cycle (07 h00-19 h00).
Temperature was maintained at approximately 22° C., and food and water were provided ad libitum.
The compound according to Formula II was formulated in 0.5% methylcellulose and dosed orally to 3 animals (or 3 mouse/time points) as a single esophageal gavage at dose ranging from 15 to 45 mg/kg under a dosing volume of 5 or 10 mL/kg.
Blood samples were collected over a 24-h period via the jugular vein (dog, minipig), ear blood vessel (rabbit), cardiac puncture (mouse) or retro-orbital sinus (rat) with lithium heparin as anti-coagulant. Whole blood samples were centrifuged and the resulting plasma samples were stored at −20° C. pending analysis.
Plasma concentrations of the compound according to Formula I and of the compound according to Formula II were determined by an LC-MS/MS method with a limit of quantification ≦10.0 ng/mL for both Formula I and Formula II for all species.
Pharmacokinetic parameters were calculated using a statistical analysis package (WinNonLin (Pharsight, Sunnyvale, Calif.: CA 94086, USA).

[4] = Formula II at 100 mg BID, time point 0 h
[5] = Formula II at 100 mg BID, time point 0.5 h
[6] = Formula II at 100 mg BID, time point 1 h
[7] = Formula II at 100 mg BID, time point 2 h
[8] = Formula II at 100 mg BID, time point 3 h
[9] = Formula II at 100 mg BID, time point 5 h
[10] = Formula II at 100 mg BID, time point 8 h
[11] = Formula II at 100 mg BID, time point 12 h
[12] = Formula II at 100 mg BID, time point 12.5 h
[13] = Formula II at 100 mg BID, time point 13 h
[14] = Formula II at 100 mg BID, time point 14 h
[15] = Formula II at 100 mg BID, time point 15 h
[16] = Formula II at 100 mg BID, time point 17 h
[17] = Formula II at 100 mg BID, time point 20 h
[18] = Formula II at 100 mg BID, time point 24 h
[19] = Formula II at 200 mg QD, time point 0 h
[20] = Formula II at 200 mg QD, time point 0.5 h
[21] = Formula II at 200 mg QD, time point 1 h
[22] = Formula II at 200 mg QD, time point 2 h
[23] = Formula II at 200 mg QD, time point 3 h
[24] = Formula II at 200 mg QD, time point 5 h
[25] = Formula II at 200 mg QD, time point 8 h
[26] = Formula II at 200 mg QD, time point 24 h
[27] = after Formula II 10 mg single dose
[28] = after Formula II 25 mg single dose
[29] = after Formula II 50 mg single dose
[30] = after Formula II 100 mg single dose
[31] = after Formula II 200 mg single dose

Ratio [blood circulating dose]/[circulating dose at IC50 quantity] [1, 4]	Ratio [blood circulating dose]/[circulating dose at IC50 quantity] [1, 5]	Ratio [blood circulating dose]/[circulating dose at IC50 quantity] [1, 6]	Ratio [blood circulating dose]/[circulating dose at IC50 quantity] [1, 7]	Ratio [blood circulating dose]/[circulating dose at IC50 quantity] [1, 8]	Ratio [blood circulating dose]/[circulating dose at IC50 quantity] [1, 9]	Ratio [blood circulating dose]/[circulating dose at IC50 quantity] [1, 10]	Ratio [blood circulating dose]/[circulating dose at IC50 quantity] [1, 11]	Ratio [blood circulating dose]/[circulating dose at IC50 quantity] [1, 12]	Ratio [blood circulating dose]/[circulating dose at IC50 quantity] [1, 13]	Ratio [blood circulating dose]/[circulating dose at IC50 quantity] [1, 14]	Ratio [blood circulating dose]/[circulating dose at IC50 quantity] [1, 15]	Ratio [blood circulating dose]/[circulating dose at IC50 quantity] [1, 16]	Ratio [blood circulating dose]/[circulating dose at IC50 quantity] [1, 17]	Ratio [blood circulating dose]/[circulating dose at IC50 quantity] [1, 18]	Ratio [blood circulating dose]/[circulating dose at IC50 quantity] [1, 19]	Ratio [blood circulating dose]/[circulating dose at IC50 quantity] [1, 20]	Ratio [blood circulating dose]/[circulating dose at IC50 quantity] [1, 21]	Ratio [blood circulating dose]/[circulating dose at IC50 quantity] [1, 22]	Ratio [blood circulating dose]/[circulating dose at IC50 quantity] [1, 23]	Structure (SMILES)	other results
0.97	0.93	0.88	0.97	1.00	1.13	0.96	0.86	0.93	0.88	0.97	1.00	1.13	0.96	0.86	0.69	0.65	0.69	0.84	0.96	Nc1nc2cccc(-c3ccc(CN4CCS(=O)(=O)CC4)cc3)n2n1 [Formula I, 5-[4-(1,1-Dioxothiomorpholin-4-ylmethyl)-phenyl]-[1,2,4]triazolo[1,5-a]pyridin-2-ylamine]	Ratio [blood circulating dose]/[circulating dose at IC50 quantity] [1, 24]: 1.00; Ratio [blood circulating dose]/[circulating dose at IC50 quantity] [1, 25]: 0.93; Ratio [blood circulating dose]/[circulating dose at IC50 quantity] [1, 26]: 0.84; apparent terminal half life in human relative to the other animal species ([2]; human vs other animal species, in vivo): at least 3 fold; Ratio I/II of exposure (AUC Formula I : AUC Formula II) [2, 27]: 22.58; Ratio I/II of exposure (AUC Formula I : AUC Formula II) [2, 28]: 21.81; Ratio I/II of exposure (AUC Formula I : AUC Formula II) [2, 29]: 19.86; Ratio I/II of exposure (AUC Formula I : AUC Formula II) [2, 30]: 15.92; Ratio I/II of exposure (AUC Formula I : AUC Formula II) [2, 31]: 12.8; half-life [2]: 21 to 27 h; AUC [2, 27]: 2890 ng·h/mL; AUC [2, 28]: 7220 ng·h/mL; AUC [2, 29]: 14600 ng·h/mL; AUC [2, 30]: 26900 ng·h/mL; AUC [2, 31]: 57600 ng·h/mL; Ratio I/II of exposure (AUC Formula I : AUC Formula II) [3]: 0.88; AUC [3]: 16700 ng·h/mL
0.09	0.12	0.48	1.28	1.71	0.88	0.26	0.09	0.12	0.48	1.28	1.71	0.88	0.26	0.09	0.02	0.46	3.14	3.88	3.16	O=C(Nc1nc2cccc(-c3ccc(CN4CCS(=O)(=O)CC4)cc3)n2n1)C1CC1 [Formula II, Cyclopropanecarboxylic acid {5-[4-(1,1-dioxo-thiomorpholin-4-ylmethyl)-phenyl]-[1,2,4]triazolo[1,5-a]pyridin-2-yl}-amide]	Ratio [blood circulating dose]/[circulating dose at IC50 quantity] [1, 24]: 1.31; Ratio [blood circulating dose]/[circulating dose at IC50 quantity] [1, 25]: 0.36; Ratio [blood circulating dose]/[circulating dose at IC50 quantity] [1, 26]: 0.11; half-life [2]: 5 to 8 h; AUC [2, 27]: 128 ng·h/mL; AUC [2, 28]: 331 ng·h/mL; AUC [2, 29]: 735 ng·h/mL; AUC [2, 30]: 1690 ng·h/mL; AUC [2, 31]: 4500 ng·h/mL; AUC [3]: 19100 ng·h/mL
